Legend:
[1] = CNS Vital Signs (CNSVS) computerized cognition battery; type: in vivo, human; conditions: for Composite memory domain score, Difference (TAK-063 LS mean - placebo LS mean, change from baseline) / Executive functioning domain score, Difference (TAK-063 LS mean - placebo LS mean, change from baseline) / Processing speed domain score, Difference (TAK-063 LS mean - placebo LS mean, change from baseline) / Psychomotor speed domain score, Difference (TAK-063 LS mean - placebo LS mean, change from baseline) / Reaction time domain score, Difference (TAK-063 LS mean - placebo LS mean, change from baseline) / Reasoning domain score, Difference (TAK-063 LS mean - placebo LS mean, change from baseline) / Sustained attention domain score, Difference (TAK-063 LS mean - placebo LS mean, change from baseline) / Verbal memory domain score, Difference (TAK-063 LS mean - placebo LS mean, change from baseline) / Visual memory domain score, Difference (TAK-063 LS mean - placebo LS mean, change from baseline) / Working memory domain score, Difference (TAK-063 LS mean - placebo LS mean, change from baseline) / Cognitive flexibility domain score, Difference (TAK-063 LS mean - placebo LS mean, change from baseline): 6 h postdose, fasting
Method: Cognitive flexibility, attention, executive function, memory, reasoning, motor control, psychomotor speed, reaction time, and information processing speed were assessed predose and at 2 and 6 h following TAK-063 treatment using the CNSVS computerized cognition battery. The CNSVS cognition battery is a well-validated, sensitive measure and included the following tests: verbal and visual memory (VBM and VIM) tests, finger-tapping test, symbol digit coding test, Stroop test, shifting attention test, the nonverbal reasoning test, and the 4-part continuous performance test (Gualtieri and Johnson [2006]). Standardized domain scores for cognitive flexibility, composite memory, executive functioning, processing speed, psychomotor speed, reaction time, reasoning, sustained attention, verbal memory, visual memory, and working memory were reported. In all domains, a decrease in the standardized domain score is indicative of impairment.
All statistical analyses were generated using SAS Version 9.2 (SAS, Cary, NC, USA). The PK parameters were derived using non-compartmental methods with WinNonlin Enterprise Version 6.3 (Pharsight Corp., Mountain View, CA, USA). Frequency or descriptive statistics were used for summary of data. Where indicated, percent coefficient of variation was included in the summary of continuous data. All statistical tests were 2-tailed at α = 0.05 level for significance unless otherwise stated. A power model was used to evaluate dose proportionality by race for fasted subjects; in the event of no observed race effect, dose proportionality was assessed for all subjects. To evaluate the food effect, a paired t test was performed on T max and natural log-transformed C max, and AUCs. An ANCOVA model with baseline scores and race as covariates was used to assess the effects of TAK-063 on CNSVS domain scores.

[2] = stated in discussion without method or reference; cited from earlier work

Structure (SMILES): COc1cn(-c2ccc(-n3cccn3)cc2F)nc(-c2ccnn2-c2ccccc2)c1=O [TAK-063]
- Composite memory domain score, Difference (TAK-063 LS mean - placebo LS mean, change from baseline) ([1]; 3 mg): -1.4
- Executive functioning domain score, Difference (TAK-063 LS mean - placebo LS mean, change from baseline) ([1]; 3 mg): 2.9
- Processing speed domain score, Difference (TAK-063 LS mean - placebo LS mean, change from baseline) ([1]; 3 mg): 2.5
- Psychomotor speed domain score, Difference (TAK-063 LS mean - placebo LS mean, change from baseline) ([1]; 3 mg): -1.8
- Reaction time domain score, Difference (TAK-063 LS mean - placebo LS mean, change from baseline) ([1]; 3 mg): 1.5
- Reasoning domain score, Difference (TAK-063 LS mean - placebo LS mean, change from baseline) ([1]; 3 mg): 6.9
- Sustained attention domain score, Difference (TAK-063 LS mean - placebo LS mean, change from baseline) ([1]; 3 mg): 15.0
- Verbal memory domain score, Difference (TAK-063 LS mean - placebo LS mean, change from baseline) ([1]; 3 mg): -4.8
- Visual memory domain score, Difference (TAK-063 LS mean - placebo LS mean, change from baseline) ([1]; 3 mg): 4.5
- Working memory domain score, Difference (TAK-063 LS mean - placebo LS mean, change from baseline) ([1]; 3 mg): 9.9
- Cognitive flexibility domain score, Difference (TAK-063 LS mean - placebo LS mean, change from baseline) ([1]; 10 mg): -10.0
- Composite memory domain score, Difference (TAK-063 LS mean - placebo LS mean, change from baseline) ([1]; 10 mg): -1.9
- Executive functioning domain score, Difference (TAK-063 LS mean - placebo LS mean, change from baseline) ([1]; 10 mg): -10.0
- Processing speed domain score, Difference (TAK-063 LS mean - placebo LS mean, change from baseline) ([1]; 10 mg): 0.2
- Psychomotor speed domain score, Difference (TAK-063 LS mean - placebo LS mean, change from baseline) ([1]; 10 mg): -9.6
- Reaction time domain score, Difference (TAK-063 LS mean - placebo LS mean, change from baseline) ([1]; 10 mg): -5.6
- Reasoning domain score, Difference (TAK-063 LS mean - placebo LS mean, change from baseline) ([1]; 10 mg): 2.2
- Sustained attention domain score, Difference (TAK-063 LS mean - placebo LS mean, change from baseline) ([1]; 10 mg): 3.6
- Verbal memory domain score, Difference (TAK-063 LS mean - placebo LS mean, change from baseline) ([1]; 10 mg): 2.9
- Visual memory domain score, Difference (TAK-063 LS mean - placebo LS mean, change from baseline) ([1]; 10 mg): -4.4
- Working memory domain score, Difference (TAK-063 LS mean - placebo LS mean, change from baseline) ([1]; 10 mg): 2.3
- Cognitive flexibility domain score, Difference (TAK-063 LS mean - placebo LS mean, change from baseline) ([1]; 30 mg): -1.9
- Composite memory domain score, Difference (TAK-063 LS mean - placebo LS mean, change from baseline) ([1]; 30 mg): 7.5
- Executive functioning domain score, Difference (TAK-063 LS mean - placebo LS mean, change from baseline) ([1]; 30 mg): -1.2
- Processing speed domain score, Difference (TAK-063 LS mean - placebo LS mean, change from baseline) ([1]; 30 mg): 2.2
- Psychomotor speed domain score, Difference (TAK-063 LS mean - placebo LS mean, change from baseline) ([1]; 30 mg): -3.7
- Reaction time domain score, Difference (TAK-063 LS mean - placebo LS mean, change from baseline) ([1]; 30 mg): -2.8
- Reasoning domain score, Difference (TAK-063 LS mean - placebo LS mean, change from baseline) ([1]; 30 mg): -0.6
- Sustained attention domain score, Difference (TAK-063 LS mean - placebo LS mean, change from baseline) ([1]; 30 mg): 2.5
- Verbal memory domain score, Difference (TAK-063 LS mean - placebo LS mean, change from baseline) ([1]; 30 mg): 3.8
- Visual memory domain score, Difference (TAK-063 LS mean - placebo LS mean, change from baseline) ([1]; 30 mg): 8.3
- Working memory domain score, Difference (TAK-063 LS mean - placebo LS mean, change from baseline) ([1]; 30 mg): -2.2
- Cognitive flexibility domain score, Difference (TAK-063 LS mean - placebo LS mean, change from baseline) ([1]; 100 mg): -5.6
- Composite memory domain score, Difference (TAK-063 LS mean - placebo LS mean, change from baseline) ([1]; 100 mg): -13.5
- Executive functioning domain score, Difference (TAK-063 LS mean - placebo LS mean, change from baseline) ([1]; 100 mg): -2.2
- Processing speed domain score, Difference (TAK-063 LS mean - placebo LS mean, change from baseline) ([1]; 100 mg): -4.7
- Psychomotor speed domain score, Difference (TAK-063 LS mean - placebo LS mean, change from baseline) ([1]; 100 mg): -11.4
- Reaction time domain score, Difference (TAK-063 LS mean - placebo LS mean, change from baseline) ([1]; 100 mg): -3.4
- Reasoning domain score, Difference (TAK-063 LS mean - placebo LS mean, change from baseline) ([1]; 100 mg): 2.0
- Sustained attention domain score, Difference (TAK-063 LS mean - placebo LS mean, change from baseline) ([1]; 100 mg): -0.1
- Verbal memory domain score, Difference (TAK-063 LS mean - placebo LS mean, change from baseline) ([1]; 100 mg): -12.0
- Visual memory domain score, Difference (TAK-063 LS mean - placebo LS mean, change from baseline) ([1]; 100 mg): -8.3
- Working memory domain score, Difference (TAK-063 LS mean - placebo LS mean, change from baseline) ([1]; 100 mg): -6.2
- Cognitive flexibility domain score, Difference (TAK-063 LS mean - placebo LS mean, change from baseline) ([1]; 300 mg): -28.4
- Composite memory domain score, Difference (TAK-063 LS mean - placebo LS mean, change from baseline) ([1]; 300 mg): -19.6
- Executive functioning domain score, Difference (TAK-063 LS mean - placebo LS mean, change from baseline) ([1]; 300 mg): -26.4
- Processing speed domain score, Difference (TAK-063 LS mean - placebo LS mean, change from baseline) ([1]; 300 mg): -1.5
- Psychomotor speed domain score, Difference (TAK-063 LS mean - placebo LS mean, change from baseline) ([1]; 300 mg): -11.1
- Reaction time domain score, Difference (TAK-063 LS mean - placebo LS mean, change from baseline) ([1]; 300 mg): -4.1
- Reasoning domain score, Difference (TAK-063 LS mean - placebo LS mean, change from baseline) ([1]; 300 mg): -2.0
- Sustained attention domain score, Difference (TAK-063 LS mean - placebo LS mean, change from baseline) ([1]; 300 mg): -8.1
- Verbal memory domain score, Difference (TAK-063 LS mean - placebo LS mean, change from baseline) ([1]; 300 mg): -17.3
- Visual memory domain score, Difference (TAK-063 LS mean - placebo LS mean, change from baseline) ([1]; 300 mg): -14.0
- Working memory domain score, Difference (TAK-063 LS mean - placebo LS mean, change from baseline) ([1]; 300 mg): -1.4
- Cognitive flexibility domain score, Difference (TAK-063 LS mean - placebo LS mean, change from baseline) ([1]; 1000 mg): -15.6
- Composite memory domain score, Difference (TAK-063 LS mean - placebo LS mean, change from baseline) ([1]; 1000 mg): -8.6
- Executive functioning domain score, Difference (TAK-063 LS mean - placebo LS mean, change from baseline) ([1]; 1000 mg): -14.1
- Processing speed domain score, Difference (TAK-063 LS mean - placebo LS mean, change from baseline) ([1]; 1000 mg): -19.7
- Psychomotor speed domain score, Difference (TAK-063 LS mean - placebo LS mean, change from baseline) ([1]; 1000 mg): -22.7
- Reaction time domain score, Difference (TAK-063 LS mean - placebo LS mean, change from baseline) ([1]; 1000 mg): -16.5
- Reasoning domain score, Difference (TAK-063 LS mean - placebo LS mean, change from baseline) ([1]; 1000 mg): -0.1
- Sustained attention domain score, Difference (TAK-063 LS mean - placebo LS mean, change from baseline) ([1]; 1000 mg): 0.7
- Verbal memory domain score, Difference (TAK-063 LS mean - placebo LS mean, change from baseline) ([1]; 1000 mg): -5.8
- Visual memory domain score, Difference (TAK-063 LS mean - placebo LS mean, change from baseline) ([1]; 1000 mg): -6.0
- Working memory domain score, Difference (TAK-063 LS mean - placebo LS mean, change from baseline) ([1]; 1000 mg): -2.7
- Single dose causing impairments in cognitive flexibility, executive functioning, processing and psychomotor speed, and visual memory ([1]; single dose, CNSVS): ≥ 100 mg
- Aqueous solubility [2]: low

Reference: PMC5063900, “A phase 1 study of the safety, tolerability, pharmacokinetics, and pharmacodynamics of TAK-063, a selective PDE10A inhibitor” (Psychopharmacology, 2016)
